Source: patent US10578610B2, “Peptide regulators of mitochondrial fusion and methods of use” (priority 2016, dated 2020)
Ends that are not written are not given here.

Columns and labels:
[1] = test system: mitochondrial mitofusins in WT MEFs; assay: Confocal localization of FITC-labeled TAT-minipeptides; format: cell-based, murine
Procedure: The above results support the premise that TAT-conjugated Mfn2 minipeptides affect mitochondrial fusion by modulating Mfn1 and Mfn2 conformation according to the dynamic structure model depicted in FIGS. 3A-3C. Additional studies were performed to validate this mechanism of action using the minipeptide-Mfn2 binding assay procedure. Confocal localization of FITC-labeled TAT-minipeptides in WT MEFs and Mfn null MEFs (Mfn1/Mfn2 DKO) was used for analysis of interaction between the minipeptides and mitochondrial mitofusins. Mitochondria were stained with MitoTracker Orange; nucleus was stained with Blue Hoechst. Line-scans were generated for the confocal photographs.
Thus, cell-internalized TAT-conjugated Mfn2 HR1 minipeptides bind specifically to mitochondrial mitofusins.

Mfn2 T105M fl/st MEFs = assay: TAT-minipeptides in MEFs expressing CMT2A mutant hMfn2 T105M; format: cell-based, murine; conditions: for mitochondrial fragmentation / dysmorphology / mitochondrial polarization / depolarization: Mfn2 T105M MEFs, 72 hours after adeno-Cre, 1 μM
Procedure: Wild-type murine embryonic fibroblast cells (MEFs) were prepared from E10.5 C57/b6 mouse embryos. SV-40 T antigen-immortalized Mfn1 null (“Mfn1 KO,” ATCC No. CRL-2992), Mfn2 null (“Mfn2 KO,” ATCC No. CRL-2993) and Mfn1/Mfn2 double null MEFs (“Mfn DKO,” ATCC No. CRL-2994) were purchased from ATCC. MEFs conditionally expressing the human Mfn2 T105M mutation were prepared from E10.5 embryos of C57BL/6-Gt(ROSA)26Sor[tm1(CAG-MFN2*T105M)Dple]/J mice purchased from The Jackson Laboratory (Stock No: 025322). MEFs were maintained in DMEM containing 4.5 g/L glucose (or galactose when specified) supplemented with 10% fetal bovine serum, 1× nonessential amino acids, 2 mM L-glutamine, 100 U/ml penicillin and 100 μg/ml streptomycin.
Models cells harboring a Cre recombinase-inducible mutant human Mfn2 containing the T105M mutation were used (FIG. 13A) because they recapitulate fusion defects caused by compound functional null Mfn2 mutants in […] CMT2A. A time course study of mitochondrial fragmentation after adeno-Cre mediated induction of Mfn2 T105M was performed and the results are shown in FIG. 13B.
It was considered that mitochondrial dysmorphology created by genetic Mfn2 dysfunction in CMT2A might be improved by TAT-367-384Gly if endogenous normal Mfn1 or Mfn2 proteins could be compelled into their active unfolded conformations, thus overcoming dominant inhibition by GTPase Mfn2 mutants. This was tested in MEFs expressing the CMT2A-causal mutant hMfn2 T105M (Calvo et al., 2009, Arch Neurol, 66:1511-1516; Detmer et al., 2008, Hum Mol Genet, 17:367-375) as a conditional flox/stop (fl/st) transgene. […] Parallel adenoviral expression of WT Mfn2 at more than twice the levels of Mfn2 T105M (5-fold vs 2-fold) provoked neither mitochondrial nor cellular toxicity (data not shown). Scale bars are 10 microns. N=3 or 4; *=P<0.05 vs. control, #=P<0.05 vs. Ad-Cre (ANOVA).

hMfn2 = target: T1, hMfn2 (Homo sapiens, UniProt O95140); assay: Mfn2 FRET assay in live cells; format: cell-based; conditions: 5 μM TAT-minipeptide, data not shown
T1 construct: expressed in transfected cells; host or cells: FMK 293T cells (so in the source), Lipofectamine-transfected, pcDNA3.1
T1 sequence (O95140 1-757): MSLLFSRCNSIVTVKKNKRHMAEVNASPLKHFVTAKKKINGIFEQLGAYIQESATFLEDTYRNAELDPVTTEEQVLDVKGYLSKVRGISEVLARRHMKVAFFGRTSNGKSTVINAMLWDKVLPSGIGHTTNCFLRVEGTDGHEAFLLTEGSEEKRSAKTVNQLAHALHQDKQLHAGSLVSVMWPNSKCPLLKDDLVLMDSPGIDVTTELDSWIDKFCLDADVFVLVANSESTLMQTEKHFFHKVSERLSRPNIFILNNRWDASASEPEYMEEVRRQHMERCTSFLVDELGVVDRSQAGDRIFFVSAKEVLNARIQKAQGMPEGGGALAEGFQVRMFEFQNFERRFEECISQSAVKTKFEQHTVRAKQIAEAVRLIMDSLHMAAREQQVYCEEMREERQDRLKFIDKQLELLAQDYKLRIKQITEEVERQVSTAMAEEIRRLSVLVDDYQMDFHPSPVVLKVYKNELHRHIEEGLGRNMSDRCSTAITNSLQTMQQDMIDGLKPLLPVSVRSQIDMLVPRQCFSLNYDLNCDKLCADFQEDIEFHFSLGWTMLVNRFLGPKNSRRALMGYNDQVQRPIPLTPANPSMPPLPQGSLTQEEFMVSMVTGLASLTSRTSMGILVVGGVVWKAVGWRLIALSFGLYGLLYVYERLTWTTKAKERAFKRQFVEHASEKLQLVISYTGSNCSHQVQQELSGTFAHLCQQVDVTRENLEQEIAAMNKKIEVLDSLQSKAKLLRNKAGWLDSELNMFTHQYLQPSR
Procedure: mCerulean1 and mVenus were cloned onto the 5′ and 3′ ends of hMfn2 cDNA in pcDNA3.1 and confirmed by DNA sequencing. Lipofectamine-transfected biosensor-expressing FMK 293T cells were imaged on an Olympus IX81 ZDC inverted microscope under 40× magnification. mCerulean was excited at 436 nm with emission at 480 nm. mVenus was excited at 500 nm with emission at 535 nm. FRET was imaged with excitation at 436 nm and emission at 535 nm. Studies were performed after adding GTP[…]S (1 mM, Sigma-Aldrich) to suppress Mfn2 GTPase activity. Live cell FRET data were acquired as described (Spiering et al., 2013, Methods Cell Biol, 114:593-609) every 60 seconds for 15 minutes before and 90 minutes after addition of TAT-minipeptides (5 µM).

QIAEAVRGIMDSLHMAARGGYGRKKRRQRRR [TAT-367-384Gly]
localization of FITC-labeled TAT-peptide to mitochondria [1]: decorated mitochondria
mitochondrial fragmentation / dysmorphology (Mfn2 T105M fl/st MEFs): rapidly reversed mitochondrial fragmentation
mitochondrial polarization / depolarization (Mfn2 T105M fl/st MEFs): improved mitochondrial polarization
mitochondrial clumping (Mfn2 T105M fl/st MEFs; cells expressing Mfn2 T105M): corrected mitochondrial clumping
FRET of hMfn2 tagged with mCerulean1 and mVenus (hMfn2): had the opposite effect

QDRLKFIDKQGELLAQDYKLRGGYGRKKRRQRRR [TAT-398-418Gly]
localization of FITC-labeled TAT-peptide to mitochondria [1]: decorated mitochondria
mitochondrial fragmentation / dysmorphology (Mfn2 T105M fl/st MEFs): aggravated mitochondrial dysmorphology
mitochondrial polarization / depolarization (Mfn2 T105M fl/st MEFs): exacerbated mitochondrial depolarization
FRET of hMfn2 tagged with mCerulean1 and mVenus (hMfn2): increased
